From patent US9782346B2, “Biodegradable ocular implant” (Nanyang Technological University, priority 2010, dated 2017)

Experiments:
[1] = Sustained drug release from PLC films / sandwich constructions; format: physicochemical
rabbit eyes = conditions: in vivo
Description: We obtained approval from the SingHealth Institute Animal Care and Use Committee (IACUC Singhealth Approval Number 2009/SHS/478) and all procedures were performed in accordance with the ARVO Statement for the Use of Animals in Ophthalmic and Vision Research. Nine New Zealand white rabbits (18 eyes) were used aged 4-6 months old with a weight range of 2-2.5 kg each. Each rabbit was anesthetized with intraperitoneal injection of ketamine hydrochloride (35-50 mg/kg) and Xylazil (5-10 mg/kg). After the animal had been adequately anaesthetized, the eye was cleaned with povidone-iodine (10%) and draped with sterile cloth. […]
Visual inspection of the operated eyes was conducted daily following surgery. […] All clinical and ocular observations were recorded on a chart. The test animals were also monitored for any gross changes such as eye discharge, squinting and, ocular discomfort. […]
Anterior segment photographs and anterior segment optical coherence tomography (AS-OCT, Visante OCT, Carl Zeiss Meditec Inc., Germany) of the implanted eyes was performed at monthly intervals. […] The site of conjunctival elevation from the microfilm was determined by the location of a light reflex over the conjunctiva during image acquisition. In cases where the light reflex was absent, the observer manually assessed the surface of the microfilm to select a radius that contained elevation. […]

Question: For CC(C)OC(=O)CCC/C=C\C[C@@H]1[C@@H](CC[C@@H](O)CCc2ccccc2)[C@H](O)C[C@@H]1O [Latanoprost], which Duration of delivery ([1]; from PLC films) is on record?
Answer: The Duration of delivery was 10 days.

Question: Which “Duration of controlled release” value ([1]; from PLC (70/30 copolymer of PLA and PCL)) does the source give for C[C@]12C=CC(=O)C=C1CC[C@@H]1[C@@H]2[C@@H](O)C[C@@]2(C)[C@H]1CC[C@]2(O)C(=O)CO [Prednisolone] here?
Answer: Its value is 100 days.

Question: Which “Duration of controlled release” value ([1]; 1% and 2% sandwich constructions (multi-layered implant)) does the source give for CCCC(CCC)C(=O)O [valproic acid] here?
Answer: Its value is 20 days.

Question: With “Poly(d,l-lactide-co-e-caprolactone) [PLC70/30]” as the compound, how does the “mean increase in vascularity grade” value (rabbit eyes) read?
Answer: The value was 15±0.6%.

Question: What about the “mean percent increase in ocular score” value (rabbit eyes) of the same compound?
Answer: The value was 15±0.6%.
